Experimental data published in US11666596B2, “Nucleotide, polypeptide and applications thereof” (THE FIRST AFFILIATED HOSPITAL, SUN YAT-SEN UNIVERSITY, priority 2017, dated 2023).
Ends that are not written are not given here.

Tested on: U251 cells
Test: Verification of ability of micropeptide to enter cells (fluorescence microscopy)
Assay type: cell-based
Conditions: FITC-attached micropeptide, 10 μM, 4 hours; all cells in sight were fluorescent; FIG. 4
Description: U251 cells were inoculated onto a glass slide at the density of 50%, and different concentrations of PTEN-31aa micropeptide attached with FITC fluorescent groups (the micropeptide was dissolved in DMSO with a concentration being 20 μg/μL, 5 mM) were added to treat cells for 4 hours, then fixed with Faure Marin, and observed and photographed under a fluorescence microscope.

- ability of micropeptide to enter U251 cells: could enter the U251 cells smoothly
Sequence: MWRDSLCAAAGYALGAGTRLRSVLSSRKLQP [PTEN-31aa]
